# Where no end group is shown, it is not given here.
# Legend:
# [1] = target: T1, mouse GLP‐2 receptor (Mus musculus, UniProt Q5IXF8); experiment: cAMP accumulation, agonism in transfected COS‐7 cells; assay type: cell-based; settings: increasing concentrations, COS‐7, n = 5
# T1 construct: host or cells: COS-7
# T1 sequence (Q5IXF8 1-512): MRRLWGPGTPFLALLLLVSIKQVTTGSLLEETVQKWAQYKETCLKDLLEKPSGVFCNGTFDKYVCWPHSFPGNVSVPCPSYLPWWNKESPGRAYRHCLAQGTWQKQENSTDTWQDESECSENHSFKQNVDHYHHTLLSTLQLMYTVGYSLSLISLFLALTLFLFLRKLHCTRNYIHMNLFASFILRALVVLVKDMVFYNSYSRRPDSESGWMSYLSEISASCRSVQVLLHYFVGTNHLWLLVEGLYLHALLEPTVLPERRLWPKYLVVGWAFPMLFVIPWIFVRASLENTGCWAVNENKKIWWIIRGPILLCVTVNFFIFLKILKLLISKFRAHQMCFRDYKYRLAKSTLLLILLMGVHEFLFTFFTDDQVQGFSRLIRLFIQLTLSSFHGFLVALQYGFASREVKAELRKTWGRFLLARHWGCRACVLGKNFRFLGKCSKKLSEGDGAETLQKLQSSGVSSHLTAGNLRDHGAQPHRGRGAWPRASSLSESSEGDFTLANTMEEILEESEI
# Description: (§1) COS‐7 cells were cultured at 10% CO2 and 37°C in Dulbecco's Modified Eagle Medium 1885 supplemented with 10% foetal bovine serum, 2‐mM glutamine, 180‐units ml^−1 penicillin and […] streptomycin. Transient transfection of the cells with either human or mouse GIP receptor was performed using the calcium phosphate precipitation method as previously described (van der Velden et al., [2021]). A second set of cells was transiently transfected with either mouse GLP‐1 or GLP‐2 receptor. Following the day after transfection, the cells were seeded in white 96‐well plates with a density of 35.000 cells per well. The next day the assay was initiated by washing the cells with HEPES buffered saline (HBS) followed by an incubation step with HBS and 1‐mM 3‐isobutyl‐1‐methylxanthine for 30 min at 37°C. For agonist studies, the ligands were then added and incubated for an additional 30 min at 37°C. To test for antagonistic properties, the cells were first preincubated for 10 min with the antagonist with subsequent addition of the agonist and incubated for an additional 20 min. The HitHunter® cAMP assay (Eurofins DiscoverX, Fremont, USA) was carried out according to the manufacturer's protocol. Luminescence was measured by PerkinElmer™ Envision 2014 Multilabel Reader.
# FIGURE 2 In vitro signalling profile of mGIPAnt‐1 on the mouse GLP‐1 and GLP‐2 receptor (R). […]
# [2] = target: T2, human GIP receptor (Homo sapiens, UniProt P48546); settings: previously shown, [2016], cited from earlier work
# T2 construct: host or cells: COS-7
# T2 sequence (P48546 22-466): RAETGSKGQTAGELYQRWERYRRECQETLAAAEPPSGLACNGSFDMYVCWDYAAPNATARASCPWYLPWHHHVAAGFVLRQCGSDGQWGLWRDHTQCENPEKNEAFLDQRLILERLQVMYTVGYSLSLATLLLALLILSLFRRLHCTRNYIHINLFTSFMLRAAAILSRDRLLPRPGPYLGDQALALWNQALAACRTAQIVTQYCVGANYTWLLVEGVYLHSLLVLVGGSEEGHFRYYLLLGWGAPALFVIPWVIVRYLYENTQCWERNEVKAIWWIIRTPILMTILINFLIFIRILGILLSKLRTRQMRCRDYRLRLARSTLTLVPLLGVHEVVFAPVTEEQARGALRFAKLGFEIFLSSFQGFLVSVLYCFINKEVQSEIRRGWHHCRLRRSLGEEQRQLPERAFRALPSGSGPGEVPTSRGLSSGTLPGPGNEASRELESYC
# Description: The antagonistic properties of mGIPAnt‐1 were determined in vitro in cAMP accumulation before initiation of the in vivo studies in comparison to the naturally occurring […] GIP(3‐30)NH2. The experiments were done on both the human and mouse GIP receptor to examine the translatability between species. To keep the experiments species specific, mGIPAnt‐1 was compared to mouse GIP(3‐30)NH2 (mGIP(3‐30)NH2) on the mouse GIP receptor and human GIP(3‐30)NH2 (hGIP(3‐30)NH2) on the human GIP receptor. We also determined whether mGIPAnt‐1 had any intrinsic activity. Here we observed no activation of the ...
# [3] = target: T3, mouse GIP receptor (Mus musculus, UniProt Q0P543); experiment: cAMP accumulation, agonism (intrinsic activity) in transfected COS‐7 cells; assay type: cell-based; settings: increasing concentrations of ligand alone, 30 min, COS‐7, n = 5
# T3 construct: host or cells: COS-7
# T3 sequence (Q0P543 19-460): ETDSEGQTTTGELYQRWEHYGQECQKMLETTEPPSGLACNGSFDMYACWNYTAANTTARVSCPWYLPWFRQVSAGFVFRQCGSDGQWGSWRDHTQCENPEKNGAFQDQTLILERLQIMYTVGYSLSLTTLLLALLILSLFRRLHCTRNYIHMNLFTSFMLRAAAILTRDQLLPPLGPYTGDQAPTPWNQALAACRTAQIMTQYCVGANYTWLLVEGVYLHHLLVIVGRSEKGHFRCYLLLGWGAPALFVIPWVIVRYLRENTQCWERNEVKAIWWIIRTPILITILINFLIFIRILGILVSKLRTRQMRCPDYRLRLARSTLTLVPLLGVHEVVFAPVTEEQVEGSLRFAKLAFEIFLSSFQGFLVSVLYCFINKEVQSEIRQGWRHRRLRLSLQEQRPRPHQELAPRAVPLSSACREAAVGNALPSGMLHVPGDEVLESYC
# Description: as §1
# (§2) To facilitate comparisons of assay outputs (cAMP assays), the results (of duplicate measurements) were normalized, with the response to 10 pM of GIP(1‐42) set as 100%. All ligand concentrations are reported as log‐transformed. The IC50 log values can be found in Figure 1. In Figure 3c, we have subtracted glucose levels from baseline to show the net differences in glucose levels in our different treatment groups.
# FIGURE 1 In vitro signalling profile of mGIPAnt‐1 on the mouse and human glucose‐dependent insulinotropic polypeptide receptor/(GIPR). COS‐7 cells were transiently transfected with (a) mouse GIPR or (b) human GIPR and assayed for cAMP accumulation. To test for agonism, increasing concentration of the ligand was added. […]
# [4] = target: T3, mouse GIP receptor; experiment: cAMP accumulation, antagonism of mouse GIP(1‐42) in transfected COS‐7 cells; assay type: cell-based; settings: COS‐7 transiently transfected with mouse GIPR; 10 min preincubation with antagonist, then mouse GIP(1‐42) at 50%–80% of Emax for 20 min; HitHunter cAMP; Hill slope −1.0; n = 5 independent experiments; read-out: IC50, inhibition of mGIP‐induced cAMP accumulation, mouse GIPR
# Description: as §1
# as §2, with “groups. […]” for “groups.”
# Results are presented as mean ± SE. Data were analysed with one‐way and two‐way analysis of variance (ANOVA) with Tukey's or Sidak multiple comparisons test and Student's unpaired t tests where appropriate. […] For the in vitro data IC50 values were determined by nonlinear regression using GraphPad Prism 9 (San Diego, California, USA). […]
# [5] = system: Female C57Bl6/J mice; experiment: Intraperitoneal glucose tolerance test, inhibition of exogenous GIP; assay type: in vivo, mouse
# Description: To assess the biological activity of mGIPAnt‐1, we performed an intraperitoneal glucose tolerance test. Mice were fasted for 4 h and given either mGIPAnt‐1 ([…]; s.c.) or vehicle at t = −90 min. Group sizes were as follows:‐ Vehicle + Vehicle, n = 10, Vehicle + GIP, n = 12 and mGIPAnt‐1 + GIP, n = 8. Varying group numbers were due to unsuccessful administration of one of the four compounds as confirmed by measurements of plasma concentrations. At t = −10 all mice were given an intraperitoneal (i.p.) injection with dipeptidyl peptidase‐4 (DPP‐4) inhibitor valine pyrrolidide followed by s.c. injection of either 25 nmol·kg^−1 GIP (Synthetic mouse GIP(1‐42) or vehicle. At t = 0 min, mice received an i.p. injection with 0.5‐g·kg^−1 glucose. Blood glucose was measured from the tail vein using a hand‐held glucometer (Accu‐Chek Mobile, Roche, Basel, Switzerland) at t = 0, 10, 30, 45, 60, 120 and 180 min. Retro‐orbital blood samples (50 μl) were taken using EDTA coated glass capillaries (Vitrex, Vasekær, Denmark) at t = 0, 15, 30 and 60, 120 and 180 min and centrifuged at 3500g, 20 min, 4°C. Plasma was transferred into Eppendorf tubes on dry ice and stored at −20°C for later insulin measurements.
# as §2
molecule,measurement,setting,value
"mGLP‐2: mouse GLP‐2, control agonist at the mouse GLP‐2 receptor (HADGSFSDEMSTILDNLATRDFINWLIQTKITD; Glucagon-like peptide 2; UniProt P55095 146-178, looked up) [reference compound]",activation of mouse GLP‐2 receptor (cAMP),[1],shown to activate their receptors
"human GIP(3‐30)NH2 (EGTFISDYSIAMDKIHQQDFVNWLLAQK-NH2; UniProt P09681 54-81, looked up, fragment) [hGIP(3‐30)NH2]",intrinsic activity (activation of human GIP receptor),"[2]; ref Gabe et al., [2018], Gasbjerg et al., [2017], Hansen et al.",no activation
same,IC50,"[2]; ref Hansen et al., read-out: IC50, antagonism of human GIPR",12 nM
"CC[C@H](C)[C@H](NC(=O)[C@H](CO)NC(=O)[C@H](Cc1ccc(O)cc1)NC(=O)[C@H](CC(=O)O)NC(=O)[C@H](CO)NC(=O)[C@@H](NC(=O)[C@H](Cc1ccccc1)NC(=O)[C@@H](NC(=O)CNC(=O)[C@@H](N)CCC(=O)O)[C@@H](C)O)[C@@H](C)CC)C(=O)N[C@@H](C)C(=O)N[C@@H](CCSC)C(=O)N[C@@H](CC(=O)O)C(=O)N[C@@H](CCCCN)C(=O)N[C@H](C(=O)N[C@@H](CCCNC(=N)N)C(=O)N[C@@H](CCC(N)=O)C(=O)N[C@@H](CCC(N)=O)C(=O)N[C@@H](CC(=O)O)C(=O)N[C@@H](Cc1ccccc1)C(=O)N[C@H](C(=O)N[C@@H](CC(N)=O)C(=O)N[C@@H](Cc1c[nH]c2ccccc12)C(=O)N[C@@H](CC(C)C)C(=O)N[C@@H](CC(C)C)C(=O)N[C@@H](C)C(=O)N[C@@H](CCC(N)=O)C(=O)N[C@@H](CCCNC(=N)N)C(N)=O)C(C)C)[C@@H](C)CC [mGIP(3‐30)NH2, mouse GIP(3‐30)NH2, reference compound]","intrinsic activity (activation of mouse GIP receptor, cAMP)",[3],neither did mGIP(3‐30)NH2 activate
same,IC50,[4],813 nM
"Synthetic mouse GIP(1‐42) (YAEGTFISDYSIAMDKIRQQDFVNWLLAQRGKKSDWKHNITQ; Gastric inhibitory polypeptide; UniProt P48756 44-85, looked up) [reference compound]",baseline‐subtracted glucose curve during IPGTT,"[5]; mGIPAnt‐1 25 μmol·kg−1 s.c. t = −90 min, GIP 25 nmol·kg−1 s.c. and val‐pyr t = −10 min, glucose 0.5 g·kg−1 i.p., n = 8–12",lowered glucose levels significantly from t = 45 min and onwards
same,glucose levels relative to baseline late in IPGTT,"[5]; t = 120 and 180 min, same dosing as glucose curve",glucose levels dropped significantly below baseline at t = 120 and t = 180 min
same,"incremental area under the glucose curve (iAUC), IPGTT",[5]; vehicle + GIP 25 nmol·kg−1 versus vehicle + vehicle and versus mGIPAnt‐1 + GIP,significantly different

# Source: paper PMC9544171, “Glucose‐dependent insulinotropic polypeptide receptor antagonist treatment causes a reduction in weight gain in ovariectomised high fat diet‐fed mice” (British Journal of Pharmacology, 2022)
